The values that follow come from publication PMC6154319, “Intestinal Transport Characteristics and Metabolism of C-Glucosyl Dihydrochalcone, Aspalathin” (Molecules : A Journal of Synthetic Chemistry and Natural …, 2017).

Like-named read-outs stand apart in the source and are kept apart here.

The nature of data set [1]: Lipophilicity, LogD7.4 (n-octanol / phosphate buffer shake flask). Type of data set: physicochemical. The following applies: phosphate buffer pH 7.4 / n-octanol. The protocol: For determination of the lipophilicity of aspalathin, a 10 mM stock solution prepared in DMSO was used to spike (100 µM) a 1:1 mixture of phosphate buffer (pH 7.4) and n-octanol. The solutions were shaken vigorously (1500 rpm) on an orbital shaker for 4 h at room temperature. Thereafter, the samples were centrifuged (3500 rpm, 2700× g) in order to fully separate the two immiscible fluids. The samples analysed using HPLC-DAD (Agilent 1200 Rapid Resolution HPLC) and the partition coefficient, LogD7.4 calculated.

Another data set deals with Caco-2 cells. Nature of the data set: Cytotoxicity of aspalathin on Caco-2 cells (Vialight plus kit). It counts as cell-based, human. The following applies: HBSS buffer pH 6.0, apical side; 2 h exposure. The text has this:
Supplementary material for:
Intestinal Transport Characteristics and Metabolism of C-Glucosyl Dihydrochalcone, Aspalathin
Sandra Bowles 1,*, Elizabeth Joubert 2,3, Dalene de Beer 2,3, Johan Louw 1,4, Christel Brunschwig 5,6,7, Mathew Njoroge 5,6,7, Nina Lawrence 6, Lubbe Wiesner 7, Kelly Chibale 5,6,8,9, and Christo […]
1 Biomedical Research and Innovation Platform, South African Medical Research Council, Tygerberg, Cape Town, 7130, South Africa; johan.louw@mrc.ac.za (J.L.); christo.muller@mrc.ac.za (C.M.) 2 Plant Bioactives Group, Post-Harvest and Wine Technology Division, Agricultural Research Council, Infruitec-Nietvoorbij, Stellenbosch 7600, South Africa; JoubertL@arc.agric.za (E.J.); DBeerD@arc.agric.za […]
3 Department of Food Science, Stellenbosch University, Stellenbosch 7600, South Africa 4 Department of Biochemistry and Microbiology, University of Zululand, Kwa-Dlangezwa 3886, South […]
Caco-2 cells was assessed by the VialightTM plus kit. Caco-2 cells were seeded at a density of 4 x 10^4 cells/cm2 into white clear bottomed 96-well plates and cytotoxicity was assessed according to the manufacturer’s recommendation after 12–13 days. […]

Data set [2] in a line: Acute mouse study, metabolite identification in blood and urine by LC-MS/MS. It counts as in vivo. The following applies: oral 50 mg/kg. The protocol: An acute mouse study was performed under ethical approval from the Ethics Committee for Research on Animals (ECRA) of the South African Medical Research Council (Ref:07/13). Three 8-week old male C57.BKS mice, obtained from the Primate Unit of the South African Medical Research Council (Tygerberg, South Africa), were housed individually in polycarbonate cages with wired lids and kept in a controlled environment of 23–24 °C, 50% humidity, and a 12 h light/dark cycle. Prior to the study, urine was collected from the fasting mice overnight in a metabolic cage. Baseline fasted blood was collected via tail snip into a heparin tube, snap frozen in liquid nitrogen, and stored at −80 °C. Each mouse received a single dose of synthetic aspalathin (50 mg/kg body weight) dissolved in phosphate-buffered saline (PBS) (5 mg/mL) via orogastric gavage. Blood samples were collected and handled as described for fasting at time 0 (pre-gavage), and 1, 2, 4, 6, and 8 h post-gavage. All the samples were collected into the same heparin tube and kept on ice during the experiment. Urine was collected over the 8-h post-gavage monitoring period and the samples were stored at −80 °C until analysis.
The frozen whole blood samples, as well as the samples incubated with microsomes and controls, were thawed, extracted by protein precipitation using 0.1% formic acid (FA) in acetonitrile, centrifuged and filtered through 0.22 µm polyvinylidene difluoride (PVDF) filters (Merck Millipore, Frankfurter Straße, Darmstadt, Germany). Frozen whole urine samples were thawed and diluted 5 times in 0.1% aqueous FA. Samples were analysed by LC-MS/MS on an Agilent 1200 Rapid Resolution HPLC system (600 bar, Agilent Technologies) coupled to a 4000 QTRAP® (AB Sciex, Framingham, MA, USA) equipped with a Turbo V™ […]. Filtered samples (10 μL), stored on a sample tray maintained at 8 °C, were injected on a Gemini C6-Phenyl column (150 × 2.0 mm, 3 µm particles) (Phenomenex, Santa Clara, CA, USA) at 40 °C. […]

The nature of data set [3]: Extended Clearance Classification System (ECCS) classification. The following applies: weak acid, molecular weight higher than 400 g/mol.
Another data set relates to intestinal epithelium. Further details: method as in earlier work. The following applies: ref 37 Huang et al., cited from earlier work.

One may read the Log D as the decadic logarithm of the distribution of all forms, ionised or not, between an organic phase and buffer at a given pH. A low value points to lower lipophilicity. On to `O=C(CCc1ccc(O)c(O)c1)c1c(O)cc(O)c([C@@H]2O[C@H](CO)[C@@H](O)[C@H](O)[C@H]2O)c1O` [Aspalathin], for which, in data set [1], the “Log D at pH 7.4” value is listed as 0.13. The “maximum concentration not cytotoxic to Caco-2 cells (>80% viability)” value in the data set with Caco-2 cells was found to be 150 µM. The “detection of aspalathin and metabolites in blood” value in data set [2] (blood 1-8 h post-gavage) is listed as “No aspalathin, nor any of its metabolites, could be detected”. The “number of aspalathin metabolites detected in the urine” value in data set [2] (urine over 8 h) was determined as 13. In data set [3], this compound registered an ECCS class of 3B. Also, the “transport of aspalathin (Papp)” value in the data set on intestinal epithelium (equal concentration of pure aspalathin) is 2.48 ± 0.03 × 10^−6 cm/s; with intestinal epithelium (from a green rooibos extract solution) it was 3.49 ± 1.45 × 10^−6 cm/s.
